Values of other authors as cited in article PMC7926623 (Marine Drugs, 2021).

System: rα6/α3β2β3 nAChR
Details: cited from earlier work

α-Conotoxin TxIB
IC50: 28.4 nM
